# Measured values as given in patent US20150105252A1, “SUBSTITUTED PYRAZOLES AS HERBICIDES” (E I DU PONT DE NEMOURS AND COMPANY, priority 2013, published 2015).
# What was measured:
# [1] = test system: barnyardgrass; assay: Test A preemergence; assay type: in vivo, Echinochloa crus-galli
# In short: (§1)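 Both timings tested concurrently in loam/sand soil: preemergence by directed soil spray, postemergence on plants of 2–10 cm at the one- to two-leaf stage. Greenhouse holding period was approximately 10 days before visual injury assessment (0–100, 0 = no effect).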
# [2] = test system: crabgrass, large; assay: Test A preemergence; assay type: in vivo, Digitaria sanguinalis
# In short: as §1
# [3] = test system: foxtail, giant; assay: Test A preemergence; assay type: in vivo, Setaria faberii
# In short: as §1
# [4] = test system: morningglory; assay: Test A preemergence; assay type: in vivo, Ipomoea spp.
# In short: as §1
# [5] = test system: pigweed; assay: Test A preemergence; assay type: in vivo, Amaranthus retroflexus
# In short: as §1
# [6] = test system: velvetleaf; assay: Test A preemergence; assay type: in vivo, Abutilon theophrasti
# In short: as §1
# [7] = test system: wheat; assay: Test A preemergence; assay type: in vivo, Triticum aestivum; conditions: preemergence
# In short: as §1
# [8] = test system: corn; assay: Test A preemergence; assay type: in vivo, Zea mays
# In short: as §1
# [9] = test system: barnyardgrass; assay: Test A postemergence; assay type: in vivo, Echinochloa crus-galli; conditions: Postemergence
# In short: as §1
# [10] = test system: crabgrass, large; assay: Test A postemergence; assay type: in vivo, Digitaria sanguinalis
# In short: as §1
# [11] = test system: foxtail, giant; assay: Test A postemergence; assay type: in vivo, Setaria faberii
# In short: as §1
# [12] = test system: morningglory; assay: Test A postemergence; assay type: in vivo, Ipomoea spp.
# In short: as §1
# [13] = test system: pigweed; assay: Test A postemergence; assay type: in vivo, Amaranthus retroflexus
# In short: as §1
# [14] = test system: velvetleaf; assay: Test A postemergence; assay type: in vivo, Abutilon theophrasti
# In short: as §1
# [15] = test system: wheat; assay: Test A postemergence; assay type: in vivo, Triticum aestivum
# In short: as §1
# [16] = test system: corn; assay: Test A postemergence; assay type: in vivo, Zea mays
# In short: as §1
# [17] = test system: rice; assay: Test B flood; assay type: in vivo, Oryza sativa; conditions: 250 g ai/ha, visual rating on 0 to 100 scale (0 no effect, 100 complete control), 13 to 15 days
# Description: (§2) Seeds selected from rice (Oryza sativa), sedge, umbrella (small-flower umbrella sedge Cyperus difformis), ducksalad (Heteranthera limosa), and barnyardgrass (Echinochloa crus-galli) were grown to the 2-leaf stage for testing. At time of treatment, test pots were flooded to 3 cm above the soil surface, treated by application of test compounds directly to the paddy water, and then maintained at that water depth for the duration of the test.
# (§3) Treated plants and controls were maintained in a greenhouse for 13 to 15 days, after which time all species were compared to controls and visually evaluated. Plant response ratings, summarized in Table B, are based on a scale of 0 to 100 where 0 is no effect and 100 is complete control. A dash (-) response means no test result.
# [18] = test system: sedge, umbrella; assay: Test B flood; assay type: in vivo, Cyperus difformis; conditions: 250 g ai/ha, visual rating on 0 to 100 scale (0 no effect, 100 complete control), 13 to 15 days
# Description: as §2, §3
# [19] = test system: ducksalad; assay: Test B flood; assay type: in vivo, Heteranthera limosa; conditions: 250 g ai/ha, visual rating on 0 to 100 scale (0 no effect, 100 complete control), 13 to 15 days
# Description: as §2, §3
# [20] = test system: barnyardgrass; assay: Test B flood; assay type: in vivo, Echinochloa crus-galli; conditions: 250 g ai/ha, visual rating on 0 to 100 scale (0 no effect, 100 complete control), 13 to 15 days
# Description: as §2, §3
# [21] = Preemergence, 500 g ai/ha, 0 to 100 scale, 0 no effect, 100 complete control
# [22] = preemergence, 125 g ai/ha, visual injury, 0 to 100 scale, approx. 10 days
# [23] = 125 g ai/ha, visual injury, 0 to 100 scale, approx. 10 days
# [24] = 500 g ai/ha, visual injury after approx. 10 days, 0 to 100 scale (0 no effect, 100 complete control)
# [25] = 125 g ai/ha, 0 to 100 scale, 0 no effect, 100 complete control
# [26] = 500 g ai/ha, visual rating after approx. 10 days, 0 to 100 scale (0 no effect, 100 complete control)
# [27] = Postemergence, 500 g ai/ha, visual rating after approx. 10 days, 0 to 100 scale (0 no effect, 100 complete control)
# [28] = postemergence, 125 g ai/ha, about 10 days, visual rating on 0 to 100 scale (0 no effect, 100 complete control)
# [29] = preemergence, 500 g ai/ha, visual injury after approx. 10 days, 0 to 100 scale (0 no effect, 100 complete control)
SMILES,"Barnyardgrass plant response rating [1, 22]","Crabgrass, Large plant response rating [2, 22]","Foxtail, Giant plant response rating [3, 22]","Morningglory plant response rating [4, 22]","Pigweed plant response rating [5, 22]","Velvetleaf plant response rating [6, 22]","Wheat plant response rating [7, 23]","Wheat plant response rating [7, 24]","Corn plant response rating [8, 22]","Barnyardgrass plant response rating [9, 25]","Barnyardgrass plant response rating [9, 26]","Crabgrass, Large plant response rating [10, 27]","Crabgrass, Large plant response rating [10, 28]","Foxtail, Giant plant response rating [11, 27]","Foxtail, Giant plant response rating [11, 28]","Morningglory plant response rating [12, 27]","Morningglory plant response rating [12, 28]","Pigweed plant response rating [13, 27]","Pigweed plant response rating [13, 28]","Velvetleaf plant response rating [14, 27]",further results
Cc1cc(C(=O)NCC(F)(F)F)nn1Oc1ccnc(C(F)(F)F)c1 [Compound 79],10,60,10,0,30,0,0,20,0,0,30,60,20,30,10,70,30,60,40,50,"Barnyardgrass plant response rating [1, 21]: 70; Crabgrass, Large plant response rating [2, 21]: 90; Foxtail, Giant plant response rating [3, 21]: 90; Morningglory plant response rating [4, 21]: 50; Pigweed plant response rating [5, 21]: 100; Velvetleaf plant response rating [6, 21]: 60; Corn plant response rating [8, 21]: 0; Velvetleaf plant response rating [14, 28]: 40; Wheat plant response rating [15, 27]: 20; Wheat plant response rating [15, 28]: 0; Corn plant response rating [16, 27]: 10; Corn plant response rating [16, 28]: 10; Plant response rating, Rice [17]: 0; Plant response rating, Sedge, Umbrella [18]: 0; Plant response rating, Ducksalad [19]: 0; Plant response rating, Barnyardgrass [20]: 0"
Cc1cc(C(=O)NC2CC2)nn1Oc1ccnc(C(F)(F)F)c1 [Compound 81],20,60,30,0,40,0,0,10,0,0,20,40,10,30,10,50,30,50,30,30,"Barnyardgrass plant response rating [1, 21]: 70; Crabgrass, Large plant response rating [2, 21]: 100; Foxtail, Giant plant response rating [3, 21]: 100; Morningglory plant response rating [4, 21]: 60; Pigweed plant response rating [5, 21]: 90; Velvetleaf plant response rating [6, 21]: 60; Corn plant response rating [8, 21]: 0; Velvetleaf plant response rating [14, 28]: 20; Wheat plant response rating [15, 27]: 0; Wheat plant response rating [15, 28]: 0; Corn plant response rating [16, 27]: 20; Corn plant response rating [16, 28]: 10; Plant response rating, Rice [17]: 0; Plant response rating, Sedge, Umbrella [18]: 0; Plant response rating, Ducksalad [19]: 0; Plant response rating, Barnyardgrass [20]: 0"
CCCNC(=O)c1cc(CC)n(Oc2ccnc(C(F)(F)F)c2)n1 [Compound 82],30,70,40,10,0,0,10,60,20,20,50,60,30,60,10,60,50,30,10,20,"Barnyardgrass plant response rating [1, 21]: 80; Crabgrass, Large plant response rating [2, 21]: 100; Foxtail, Giant plant response rating [3, 21]: 100; Morningglory plant response rating [4, 21]: 50; Pigweed plant response rating [5, 21]: 60; Velvetleaf plant response rating [6, 21]: 20; Corn plant response rating [8, 21]: 60; Velvetleaf plant response rating [14, 28]: 10; Wheat plant response rating [15, 27]: 50; Wheat plant response rating [15, 28]: 0; Corn plant response rating [16, 27]: 60; Corn plant response rating [16, 28]: 20; Plant response rating, Rice [17]: 0; Plant response rating, Sedge, Umbrella [18]: 75; Plant response rating, Ducksalad [19]: 30; Plant response rating, Barnyardgrass [20]: 0"
CCCCNC(=O)c1cc(C)n(Oc2ccnc(C(F)(F)F)c2)n1 [Compound 85],0,20,0,0,0,0,0,0,0,0,10,20,10,20,0,40,10,10,0,10,"Barnyardgrass plant response rating [1, 21]: 30; Crabgrass, Large plant response rating [2, 21]: 80; Foxtail, Giant plant response rating [3, 21]: 50; Morningglory plant response rating [4, 21]: 10; Pigweed plant response rating [5, 21]: 0; Velvetleaf plant response rating [6, 21]: 0; Corn plant response rating [8, 21]: 0; Velvetleaf plant response rating [14, 28]: 0; Wheat plant response rating [15, 27]: 0; Wheat plant response rating [15, 28]: 0; Corn plant response rating [16, 27]: 10; Corn plant response rating [16, 28]: 0; Plant response rating, Rice [17]: 0; Plant response rating, Sedge, Umbrella [18]: 0; Plant response rating, Ducksalad [19]: 0; Plant response rating, Barnyardgrass [20]: 0"
CCCNC(=O)c1cc(CC)n(Cc2cccc(C(F)(F)F)n2)n1 [Compound 88],0,0,0,0,0,0,0,0,0,0,0,10,0,0,0,10,10,10,0,10,"Barnyardgrass plant response rating [1, 29]: 0; Crabgrass, Large plant response rating [2, 29]: 30; Foxtail, Giant plant response rating [3, 29]: 0; Morningglory plant response rating [4, 29]: 10; Pigweed plant response rating [5, 29]: 0; Velvetleaf plant response rating [6, 29]: 0; Corn plant response rating [8, 29]: 0; Velvetleaf plant response rating [14, 28]: 0; Wheat plant response rating [15, 27]: 0; Wheat plant response rating [15, 28]: 0; Corn plant response rating [16, 27]: 10; Corn plant response rating [16, 28]: 0; Plant response rating, Rice [17]: 0; Plant response rating, Sedge, Umbrella [18]: 0; Plant response rating, Ducksalad [19]: 0; Plant response rating, Barnyardgrass [20]: 0"
